Like-named read-outs stand apart in the source and are kept apart here.
How the values were obtained:
[1] = pKa determination by CE-pH titration; assay type: physicochemical; conditions: 25 mM Na2HPO4 / 25 mM Na2B4O7 buffers, pH 7–10, 25 °C
Text: CE is a widely used technique for the analysis of charged compounds; thus, the acid-base properties and the pKa of the analyte are crucial in CE method development. Furthermore, the protonation state of compounds has a decisive influence on both their behavior in the body and their affinity for CDs. […] However, it has the disadvantage that its reproducibility is less than that of conventional pH potentiometry; thus, the results of CE-pH titration should be confirmed by independent method (potentiometry, NMR-pH titration).
In order to determine the pKa of the five cathinone analogs, CE-pH titration was applied, in which the purpose was to register the effective mobility changes as a function of pH. As the five tested compounds contain secondary or tertiary amino groups, the pH range tested was pH 7–10, applying Na2HPO4 -Na2B4O7 buffers, where the appropriate pH was adjusted with hydrochloric acid. At a given pH, the mobility is determined by the sum of the mobility of the protonated and deprotonated forms:(1) μpH=μLxL+μHLxHL=μL+μHLKH^+/1+KH^+ where the μpH is the mobility of the compound at the given pH; μL and μHL are the mobilities of the deprotonated and protonated forms, respectively; xL and xHL are the mole fractions of the deprotonated and protonated forms, respectively; and K is the protonation constant. Plotting the μpH data against pH gives the titration curves from which the protonation constant can be calculated according to Equation (1).

[2] = pKa determination by potentiometry; assay type: physicochemical; conditions: aqueous solution; I = 0.15 M KCl, 25.0 °C
Protocol: The protonation constants were confirmed by potentiometry using a GLpKa instrument (Sirius, Forest Row, UK) equipped with a combination Ag/AgCl pH electrode. The four-parameter technique (Four PlusTM method) was used for electrode calibration. The titrations were carried out at constant ionic strength (I = 0.15 M KCl) and temperature (T = 25.0 ± 0.5 °C) under a nitrogen atmosphere. An amount of 10 ml of a ~1 mM aqueous solution of the analytes (4-MEC, MDPV) was pre-acidified to pH 2.0 with 0.5 M HCl and then titrated with 0.5 M KOH to pH 12.2. Three parallel measurements were carried out. The pKa values were calculated using the RefinementProTM software (Sirius, Forest Row, UK).

[3] = CE-pH titration; cited from earlier work
[4] = Affinity capillary electrophoresis (ACE), pH 7.4; conditions: 30 mM phosphate buffer pH 7.4, 25 °C, 15 kV
Procedure, shortened: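 Mobility-shift ACE of cathinone analogues with cyclodextrins (0.25–20 mM in BGE) in 30 mM phosphate pH 7.4, 25 °C, fused-silica capillary, 15 kV, UV 215 nm, DMSO as EOF marker. Mobilities obtained by HVL peak fitting; complex stability constants corrected for viscosity and ionic strength.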

[5] = Affinity capillary electrophoresis (ACE), pH 4.5; conditions: 20 mM acetate buffer pH 4.5, 25C, 15 kV
Text: The simplest way to determine the mobility is from the migration times (tmax) read from the electropherograms from which the apparent mobility could be calculated, but more accurate mobility values could be obtained by the determination with the Haarhoff–van der Linde (HVL) function based on Equation (2). (2) HVLδ(t;a0,a1,a2,a3δ)=a0/a2a3δ2πexp[−1/2(t−a1/a2)^2]/1/exp(a3δ)−1+1/2[1+erf(t−a1/2a2)] where a0 is the area of the HVL function, a1 is the position of the Gaussian component, a2 is the standard deviation of the Gaussian component, and a3δ is the peak shape distortion. The application of the HVL function is necessary in the case of accurate ACE measurements because, in several cases, the peaks are distorted due to the complex formation, which makes reading the migration times and calculating the mobility more difficult and imprecise.
The most popular technique for quantifying the analyte–ligand interaction with CE is mobility shift ACE. This technique involves varying the background electrolyte’s ligand concentrations while introducing a constant volume of the analyte and an EOF marker into the capillary. The analyte–ligand equilibrium is assumed to happen before the separation is complete, requiring fast complex formation kinetics. Typical ligand concentrations are 1–2 orders of magnitude greater than the analyte. The following equation describes the observed mobility as a function of the interaction with the following analyte ligand:(3) μ=μfff+μcfc where μ is the observed mobility, μf and μc are the electrophoretic mobility of the free and complexed analyte, and ff and fc are the free and ligand-bound fractions of the analyte.
Assuming a 1:1 binding stoichiometry, the effective mobility (μeff, calculated by correcting with the EOF marker mobility) can be expressed as (4) μeff=μfK+μc[L]/K+[L] where K is the equilibrium dissociation constant and [L] is the ligand concentration. The apparent complex stability constant (K) can be calculated using several methods, e.g., the X-reciprocal method with linear fitting, but non-linear curve fitting based on Equation (4) is more accurate. A hyperbolic growing or decline curve is obtained, and K could be determined by plotting the effective mobility as a function of the [L] (e.g., CD concentration) in the background electrolyte. The CEval software enables faster and simpler evaluation of electropherograms and further data processing to determine the stability constants of complexes with a 1:1 stoichiometric ratio [27].
During the ACE measurement series, the CD concentration is increased whilst injecting a constant amount of the cathinone derivatives and the EOF marker DMSO. The complex stability calculations were conducted with the CEval program applying the HVL function to eliminate the effect of electromigration dispersion on migration time for exact mobility and, thus complex stability constant determination. Viscosity correction and ionic strength correction were applied. […]

Structure (SMILES): CCNC(C)C(=O)c1ccc(C)cc1 (racemic) [4-MEC, (±)-2-(ethylamino)-1-(4-methylphenyl)propan-1-one]
- pKa [1]: 8.81 ± 0.02
- pKa [2]: 8.85 ± 0.04

Structure (SMILES): CCC(NC)C(=O)c1ccc2c(c1)OCO2 (racemic) [Butylone, (±)-1-(1,3-benzodioxol-5-yl)-2-(methylamino)-butan-1-one]
- pKa [1]: 8.64 ± 0.01

Structure (SMILES): CNC(C)C(=O)c1ccc(F)cc1 (racemic) [Flephedrone, (±)-1-(4-fluorophenyl)-2-(methylamino)propan-1-one]
- pKa [1]: 8.56 ± 0.01

Structure (SMILES): CCCC(C(=O)c1ccc2c(c1)OCO2)N1CCCC1 (racemic) [MDPV, (±)-1-(benzo[d]-[1, 3]-dioxol-5-yl)-2-(pyrrolidin-1-yl)pentan-1-one]
- pKa [3]: 9.13
- pKa [1]: 9 ± 0.02
- pKa [2]: 9.05 ± 0.04

Structure (SMILES): CNC(C)C(=O)c1ccc(C)cc1 (racemic) [Mephedrone, (±)-2-(methylamino)-1-(4-methylphenyl)propan-1-one]
- pKa [3]: 8.82
- pKa [1]: 8.61 ± 0.01

Structure (SMILES): CC(=O)O[C@@H]1[C@@H](OC(C)=O)[C@H]2O[C@H]3[C@H](OC(C)=O)[C@@H](OC(C)=O)[C@@H](O[C@H]4[C@H](OC(C)=O)[C@@H](OC(C)=O)[C@@H](O[C@H]5[C@H](OC(C)=O)[C@@H](OC(C)=O)[C@@H](O[C@H]6[C@H](OC(C)=O)[C@@H](OC(C)=O)[C@@H](O[C@H]7[C@H](OC(C)=O)[C@@H](OC(C)=O)[C@@H](O[C@H]8[C@H](OC(C)=O)[C@@H](OC(C)=O)[C@@H](O[C@@H]1[C@@H](COS(=O)(=O)O)O2)O[C@@H]8COS(=O)(=O)O)O[C@@H]7COS(=O)(=O)O)O[C@@H]6COS(=O)(=O)O)O[C@@H]5COS(=O)(=O)O)O[C@@H]4COS(=O)(=O)O)O[C@@H]3COS(=O)(=O)O [HDAS-β-CD, heptakis-(2,3-O-diacethyl, 6-O-sulfo)-β-CD]
- 4-MEC–CD complex stability constant, Kstab2 (second migrating enantiomer) [4]: 830 ± 45 M⁻¹
- 4-MEC–CD complex stability constant, Kstab/Kstab1 (unresolved or first migrating enantiomer) [4]: 560 ± 40 M⁻¹
- Butylone–CD complex stability constant, Kstab/Kstab1 (unresolved or first migrating enantiomer) [4]: 725 ± 20 M⁻¹
- Flephedrone–CD complex stability constant, Kstab2 (second migrating enantiomer) [4]: 360 ± 75 M⁻¹
- Flephedrone–CD complex stability constant, Kstab/Kstab1 (unresolved or first migrating enantiomer) [4]: 110 ± 37 M⁻¹
- MDPV–CD complex stability constant, Kstab2 (second migrating enantiomer) [4]: 340 ± 30 M⁻¹
- MDPV–CD complex stability constant, Kstab/Kstab1 (unresolved or first migrating enantiomer) [4]: 360 ± 55 M⁻¹
- Mephedrone–CD complex stability constant, Kstab2 (second migrating enantiomer) [4]: 730 ± 40 M⁻¹
- Mephedrone–CD complex stability constant, Kstab/Kstab1 (unresolved or first migrating enantiomer) [4]: 450 ± 60 M⁻¹
- Flephedrone–CD complex stability constant Kstab1 (first migrating enantiomer) [5]: 470 ± 40 M⁻¹
- Flephedrone–CD complex stability constant, Kstab2 (second migrating enantiomer) [5]: 660 ± 55 M⁻¹
- MDPV–CD complex stability constant Kstab1 (first migrating enantiomer) [5]: 800 ± 50 M⁻¹
- MDPV–CD complex stability constant, Kstab2 (second migrating enantiomer) [5]: 960 ± 80 M⁻¹

Structure (SMILES): CO[C@@H]1[C@@H](OC)[C@H]2O[C@H]3[C@H](OC)[C@@H](OC)[C@@H](O[C@H]4[C@H](OC)[C@@H](OC)[C@@H](O[C@H]5[C@H](OC)[C@@H](OC)[C@@H](O[C@H]6[C@H](OC)[C@@H](OC)[C@@H](O[C@H]7[C@H](OC)[C@@H](OC)[C@@H](O[C@H]8[C@H](OC)[C@@H](OC)[C@@H](O[C@@H]1[C@@H](COS(=O)(=O)O)O2)O[C@@H]8COS(=O)(=O)O)O[C@@H]7COS(=O)(=O)O)O[C@@H]6COS(=O)(=O)O)O[C@@H]5COS(=O)(=O)O)O[C@@H]4COS(=O)(=O)O)O[C@@H]3COS(=O)(=O)O [HDMS-β-CD, heptakis-(2,3-O-dimethyl, 6-O-sulfo)-β-CD]
- MDPV–CD complex stability constant, Kstab/Kstab1 (unresolved or first migrating enantiomer) [4]: 915 ± 265 M⁻¹
- 4-MEC–CD complex stability constant Kstab1 (first migrating enantiomer) [5]: 170 ± 15 M⁻¹
- 4-MEC–CD complex stability constant, Kstab2 (second migrating enantiomer) [5]: 190 ± 15 M⁻¹
- Butylone–CD complex stability constant Kstab1 (first migrating enantiomer) [5]: 150 ± 10 M⁻¹
- Butylone–CD complex stability constant, Kstab2 (second migrating enantiomer) [5]: 180 ± 12 M⁻¹
- Flephedrone–CD complex stability constant Kstab1 (first migrating enantiomer) [5]: 250 ± 7 M⁻¹
- Flephedrone–CD complex stability constant, Kstab2 (second migrating enantiomer) [5]: 235 ± 20 M⁻¹
- MDPV–CD complex stability constant Kstab1 (first migrating enantiomer) [5]: 160 ± 15 M⁻¹
- MDPV–CD complex stability constant, Kstab2 (second migrating enantiomer) [5]: 175 ± 12 M⁻¹
- Mephedrone–CD complex stability constant Kstab1 (first migrating enantiomer) [5]: 205 ± 20 M⁻¹
- Mephedrone–CD complex stability constant, Kstab2 (second migrating enantiomer) [5]: 205 ± 15 M⁻¹

Structure (SMILES): O=S(=O)(O)OC[C@H]1O[C@@H]2O[C@H]3[C@H](O)[C@@H](O)[C@@H](O[C@H]4[C@H](O)[C@@H](O)[C@@H](O[C@H]5[C@H](O)[C@@H](O)[C@@H](O[C@H]6[C@H](O)[C@@H](O)[C@@H](O[C@H]7[C@H](O)[C@@H](O)[C@@H](O[C@H]8[C@H](O)[C@@H](O)[C@@H](O[C@H]1[C@H](O)[C@H]2O)O[C@@H]8COS(=O)(=O)O)O[C@@H]7COS(=O)(=O)O)O[C@@H]6COS(=O)(=O)O)O[C@@H]5COS(=O)(=O)O)O[C@@H]4COS(=O)(=O)O)O[C@@H]3COS(=O)(=O)O [HS-β-CD, heptakis-(6-O-sulfo)-β-CD]
- Flephedrone–CD complex stability constant, Kstab2 (second migrating enantiomer) [4]: 470 ± 65 M⁻¹
- Flephedrone–CD complex stability constant, Kstab/Kstab1 (unresolved or first migrating enantiomer) [4]: 580 ± 14 M⁻¹
- Flephedrone–CD complex stability constant Kstab1 (first migrating enantiomer) [5]: 635 ± 35 M⁻¹
- Flephedrone–CD complex stability constant, Kstab2 (second migrating enantiomer) [5]: 615 ± 30 M⁻¹
- MDPV–CD complex stability constant Kstab1 (first migrating enantiomer) [5]: 500 ± 45 M⁻¹

— PMC10893103, “Cyclodextrin-Enabled Enantioselective Complexation Study of Cathinone Analogs” (Molecules, 2024)
